This note sets out measurements from patent publication US4755517A, “Derivatives of xanthine, pharmaceutical compositions and methods of use therefor” (Warner-Lambert Company, priority 1986, dated 1988).

The term IC50 denotes the midpoint of a concentration-inhibition curve. A high value points to a need for much substance.

Each structure is given as a SMILES string.

In assay [1] the target is T1, adenosine A1 receptor (Rattus norvegicus, UniProt P25099).
T1 construct: from tissue; host or cells: rat whole brain membranes
T1 sequence (P25099 1-326): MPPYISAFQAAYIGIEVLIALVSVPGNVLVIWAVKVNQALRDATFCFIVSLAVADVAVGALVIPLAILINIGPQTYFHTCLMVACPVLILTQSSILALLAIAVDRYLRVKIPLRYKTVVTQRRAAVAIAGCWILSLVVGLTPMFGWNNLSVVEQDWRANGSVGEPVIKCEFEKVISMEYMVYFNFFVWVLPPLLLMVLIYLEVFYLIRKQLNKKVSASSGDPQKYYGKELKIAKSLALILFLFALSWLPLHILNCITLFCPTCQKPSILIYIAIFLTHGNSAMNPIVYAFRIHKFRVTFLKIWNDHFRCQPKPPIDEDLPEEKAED
The experiment in a line: [3H]-N6-cyclohexyladenosine binding to rat whole brain membranes (A1 affinity, RBA-1).

Assay [2] concerns mouse locomotor activity. The experiment in a line: Locomotor activity of mice, drug alone. Type of assay: in vivo, Male Swiss-Webster mice. Particulars: for percent suppression of locomotion: alone; for effect on spontaneous exploratory activity (in words): mice. The procedure:
Suspensions are ultrasonicated for 3 minutes.

Assay [3] concerns the target T2, adenosine A2 receptor (Rattus norvegicus, UniProt P30543).
T2 construct: from tissue; host or cells: rat striatal membranes
Nature of the assay: [3H]-NECA binding to rat striatal membranes (A2 affinity, RBA-2).

T2 sequence (P30543 whole entry): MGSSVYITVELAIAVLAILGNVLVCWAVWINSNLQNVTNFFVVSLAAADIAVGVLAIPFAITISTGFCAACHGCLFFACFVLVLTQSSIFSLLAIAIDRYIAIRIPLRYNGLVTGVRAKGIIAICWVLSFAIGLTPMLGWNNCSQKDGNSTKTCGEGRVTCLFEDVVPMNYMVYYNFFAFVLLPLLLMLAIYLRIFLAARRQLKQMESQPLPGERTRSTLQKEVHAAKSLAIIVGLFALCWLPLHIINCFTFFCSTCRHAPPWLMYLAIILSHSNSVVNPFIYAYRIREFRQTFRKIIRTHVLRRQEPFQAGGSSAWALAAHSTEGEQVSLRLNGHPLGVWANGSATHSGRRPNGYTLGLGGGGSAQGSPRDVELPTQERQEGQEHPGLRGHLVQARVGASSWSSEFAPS

In turn, `CCCn1c(=O)c2[nH]c(C3CCCS3)nc2n(CCC)c1=O` (stereo not shown) [Example 5, 1,3-Dipropyl-8-(2-tetrahydrothienyl)xanthine] gave an IC50 in assay [1] of 88 nM.

For `OC[C@H]1O[C@@H](n2cnc3c(NC4CCCC4)ncnc32)[C@H](O)[C@@H]1O` [CPA, N^6 -cyclopentyladenosine], in assay [2] (CPA 2 mg/kg IP), the “percent suppression of locomotion” value came to 94%. Besides, the “effect on spontaneous exploratory activity (in words)” value in assay [2] is recorded as “inhibition of spontaneous exploratory activity”.

Turning to `Cn1c(=O)c2nc(C3CCOC3)[nH]c2n(C)c1=O` (stereo not shown) [Example 4], the results for the IC50 in assay [3] and in assay [1] were 2000 nM and 400 nM, respectively.

For `CCCn1c(=O)c2[nH]c(C3CCSC3)nc2n(CCC)c1=O` (stereo not shown) [Example 1, 1,3-Dipropyl-8-(3-tetrahydrothienyl)xanthine], the IC50 in assay [3] came to 622 nM; in assay [1], 2 nM.

Consider `Nc1nc(Nc2ccccc2)nc2c1ncn2[C@@H]1O[C@H](CO)[C@@H](O)[C@H]1O` [CV-1808, 2-anilinoadenosine], for which the “percent suppression of locomotion” value in assay [2] (CV-1808 8 mg/kg IP) came out at 83%. Moreover, the “effect on spontaneous exploratory activity (in words)” value in assay [2] was “inhibition of spontaneous exploratory activity”.

Turning to `CCCn1c(=O)c2[nH]c(C3CCCO3)nc2n(CCC)c1=O` (stereo not shown) [Example 2, 1,3-Dipropyl-8-(2-tetrahydrofuranyl)xanthine], the IC50 in assay [3] turned out to be 3100 nM; in assay [1], 20 nM.

On to `CCCn1c(=O)c2[nH]c(C3CCOC3)nc2n(CCC)c1=O` (stereo not shown) [Example 3, 1,3-Dipropyl-8-(3-tetrahydrofuranyl)xanthine], for which the IC50 came out at 4650 nM in assay [3] and 28 nM in assay [1].
